Columns and labels:
Type in all cases: in vivo
Digitaria ciliaris [1] = experiment: Test Example 4: herbicidal effect test by stem and leaf treatment in upland field; conditions: 120 g per 10 ares, sprayed seven days after sowing, upland soil, 14 days after application; for inhibition at 1200 g/ha: Digitaria ciliaris, read-out: weed inhibition rate
Echinochloa crus-galli [2] = experiment: as above; conditions: 120 g per 10 ares, sprayed seven days after sowing, upland soil, 14 days after application; for inhibition at 1200 g/ha: Echinochloa crus-galli, read-out: weed inhibition rate
Echinochloa crus-galli [3] = experiment: Test Example 8: herbicidal effect test by stem and leaf treatment in upland field (low dose); conditions: Echinochloa crus-galli; 7.5 g per 10 ares; sprayed seven days after sowing, upland soil; 14 days after application; read-out: weed inhibition rate
Description: (§1) The present test was conducted in duplicate for each chemical concentration group, and the weed inhibition rate (%) was determined 14 days after chemical application using the following formula (Math. 1). [formula]
Pots with an area of 36 cm^2 were filled with upland soil (alluvial loam), twenty seeds each of weeds of Digitaria ciliaris, and Echinochloa crus-galli were uniformly mixed with the top 1 cm layer of soil and the surface was lightly pressed down. Seven days after sowing, an emulsifiable concentrate prepared according to Formulation Example 5 using the compound shown below was diluted with water, and the diluted solution was sprayed onto the soil surface at a rate of 100 liters per 10 ares. The amount of the active ingredient to be applied was equivalent to 7.5 g per 10 ares. Fourteen days after chemical application, the herbicidal effect was evaluated according to the same criteria as in Test Example 1.

Echinochloa crus-galli [4] = experiment: Test Example 3: herbicidal effect test by soil application in upland field; conditions: 120 g per 10 ares, sprayed one day after sowing, 14 days after application; for inhibition at 1200 g/ha: Echinochloa crus-galli, read-out: weed inhibition rate
In short: (§2)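 Pre-emergence test: seeds mixed into top 1 cm of alluvial loam upland soil in pots; emulsifiable concentrate diluted in water sprayed on soil one day after sowing at 100 L/10 a, 120 g a.i./10 a. Weed inhibition rate (%) scored at 14 days, in duplicate.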

Digitaria ciliaris [5] = experiment: as above; conditions: 120 g per 10 ares, sprayed one day after sowing, 14 days after application; for inhibition at 1200 g/ha: Digitaria ciliaris, read-out: weed inhibition rate
In short: as §2

[6] = test system: Echinochloa crus-galli var. formosensis; experiment: Test Example 5: herbicidal effect test by soil application in paddy rice (low dose); conditions: Echinochloa crus-galli, soil, 336 h; 7.5 g per 10 ares; applied immediately after sowing, flooded pots; 14 days after application; read-out: weed inhibition rate
Description: as §1
Wagner pots with an area of […] were filled with paddy soil, followed by addition of water and incorporation of chemical fertilizer (N:P:K = 16:16:16), after which puddling was performed. After that, seeds of Echinochloa crus-galli var. formosensis, broad-leaved weeds (Monochoria vaginalis), and Scirpus juncoides were sown at a depth of 0 cm to 1 cm, 30 seeds each. Immediately after sowing, the pots were flooded and a water depth of approximately 3 cm was maintained. Subsequent management was conducted in a glass greenhouse. Immediately thereafter, an emulsifiable concentrate prepared according to Formulation Example 5 using the compound shown below was diluted with water, and a specified amount of the diluted solution was applied by dropper. The amount of the active ingredient to be applied was equivalent to 7.5 g per 10 ares. […]

[7] = test system: Echinochloa crus-galli var. formosensis; experiment: Test Example 2: herbicidal effect test by application during growth period of paddy rice; conditions: 120 g per 10 ares, applied seven days after sowing, flooded pots, 14 days after application; for inhibition at 1200 g/ha: Echinochloa crus-galli, read-out: weed inhibition rate
In short: (§3)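 Weeds sown into puddled, flooded paddy soil received a post-emergence water application of emulsifiable concentrate at 120 g active ingredient per 10 ares, seven days after sowing. Herbicidal effect was rated 14 days later as inhibition (%).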

Scirpus juncoides [8] = experiment: as above; conditions: 120 g per 10 ares, applied seven days after sowing, flooded pots, 14 days after application; for inhibition at 1200 g/ha: Schoenoplectiella juncoides, read-out: weed inhibition rate
In short: as §3

[9] = test system: Echinochloa crus-galli var. formosensis; experiment: Test Example 1: herbicidal effect test by soil application in paddy rice; conditions: 120 g active ingredient per 10 ares, applied immediately after sowing, flooded pots, 14 days after application; for pest or weed control at 1200 g/ha: Echinochloa crus-galli, soil, 336 h, read-out: weed inhibition rate
In short: (§4)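 Weeds sown 0–1 cm deep (30 seeds each) into fertilized, puddled paddy soil in Wagner pots. Pots are flooded immediately, water held near 3 cm, and the diluted emulsifiable concentrate is dripped in at once, delivering 120 g active ingredient per 10 ares under glass-greenhouse management.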

Scirpus juncoides [10] = experiment: as above; conditions: 120 g active ingredient per 10 ares, applied immediately after sowing, flooded pots, 14 days after application; for pest or weed control at 1200 g/ha: Schoenoplectiella juncoides, soil, 336 h, read-out: weed inhibition rate
In short: as §4

[11] = test system: Echinochloa crus-galli var. formosensis; experiment: Test Example 6: herbicidal effect test by application during growth period of paddy rice (low dose); conditions: Echinochloa crus-galli; 7.5 g per 10 ares; applied seven days after sowing, flooded pots; 14 days after application; read-out: weed inhibition rate
Description: as §1
Wagner pots with an area of […] were filled with paddy soil, followed by addition of water and incorporation of chemical fertilizer (N:P:K = 16:16:16), after which puddling was performed. After that, seeds of Echinochloa crus-galli var. formosensis, broad-leaved weeds (Monochoria vaginalis), and Scirpus juncoides were sown at a depth of 0 cm to 1 cm, 30 seeds each. Immediately after sowing, the pots were flooded and a water depth of approximately 3 cm was maintained. Subsequent management was conducted in a glass greenhouse. Seven days after sowing, an emulsifiable concentrate prepared according to Formulation Example 5 using the compound shown below was diluted with water, and a specified amount of the diluted solution was applied by dropper. The amount of the active ingredient to be applied was equivalent to 7.5 g per 10 ares. The test was conducted in duplicate for each chemical concentration group, and the herbicidal effect was evaluated 14 days after chemical application using the same criteria as in Test Example 1.

CC(C)[C@@]12C[C@H](OCc3ccccc3F)[C@@](C)(C[C@H]1Br)O2 [1-1028, (1R,2S,4S,5R)-5-bromo-2-[(2-fluorophenyl)methoxy]-1-methyl-4-isopropyl-7-oxabicyclo[2.2.1]heptane]
≥ 80%: inhibition at 1200 g/ha (Digitaria ciliaris [1]) | inhibition at 1200 g/ha (Echinochloa crus-galli [2]) | inhibition at 75 g/ha (Echinochloa crus-galli [3])

CC#CCO[C@@H]1C[C@]2(C(C)C)O[C@@]1(C)C[C@@H]2Br [1-674, (1S,2R,4R,5S)-5-bromo-2-but-2-ynoxy-1-methyl-4-isopropyl-7-oxabicyclo[2.2.1]heptane]
≥ 80%: inhibition at 1200 g/ha (Echinochloa crus-galli [4]) | inhibition at 1200 g/ha (Digitaria ciliaris [5]) | inhibition at 75 g/ha [6] | inhibition at 1200 g/ha [7] | inhibition at 1200 g/ha (Scirpus juncoides [8]) | inhibition at 1200 g/ha (Digitaria ciliaris [1]) | inhibition at 1200 g/ha (Echinochloa crus-galli [2]) | pest or weed control at 1200 g/ha [9] | pest or weed control at 1200 g/ha (Scirpus juncoides [10]) | inhibition at 75 g/ha [11]

CC(C)[C@]12C=C[C@](C)(O1)[C@H](OCc1ccccn1)C2 [3-738, 2-[[(1S,2R,4R)-1-methyl-4-isopropyl-7-oxabicyclo[2.2.1]hept-5-en-2-yl]oxymethyl]pyridine]
≥ 80%: inhibition at 1200 g/ha (Echinochloa crus-galli [4]) | inhibition at 1200 g/ha (Digitaria ciliaris [5]) | inhibition at 1200 g/ha [7] | inhibition at 1200 g/ha (Scirpus juncoides [8]) | inhibition at 1200 g/ha (Digitaria ciliaris [1]) | inhibition at 1200 g/ha (Echinochloa crus-galli [2]) | pest or weed control at 1200 g/ha [9] | pest or weed control at 1200 g/ha (Scirpus juncoides [10])

CC(=O)O[C@H]1C[C@]2(C)O[C@@]1(C(C)C)C[C@H]2OCc1ccccc1F (racemic) [1-480, [(1R,2S,4S,SR)-5-[(2-fluorophenyl)methoxy]-4-methyl-1-isopropyl-7-oxabicyclo[2.2.1]heptan-2-yl]acetate]
≥ 80%: weed inhibition rate (Echinochloa crus-galli [4]) | weed inhibition rate (Digitaria ciliaris [5]) | weed inhibition rate [7] | weed inhibition rate (Scirpus juncoides [8]) | weed inhibition rate (Digitaria ciliaris [1]) | weed inhibition rate (Echinochloa crus-galli [2]) | weed inhibition rate [9] | weed inhibition rate (Scirpus juncoides [10])

CC#CCO[C@@H]1C[C@]2(C(C)C)O[C@@]1(C)CC2Br (stereo partly drawn) [1-1336, (1S,2R,4R)-5-bromo-2-but-2-ynoxy-1-methyl-4-isopropyl-7-oxabicyclo[2.2.1]heptane]
≥ 80%: inhibition at 1200 g/ha (Echinochloa crus-galli [4]) | inhibition at 1200 g/ha (Digitaria ciliaris [5]) | inhibition at 1200 g/ha [7] | inhibition at 1200 g/ha (Scirpus juncoides [8]) | inhibition at 1200 g/ha (Digitaria ciliaris [1]) | inhibition at 1200 g/ha (Echinochloa crus-galli [2]) | pest or weed control at 1200 g/ha [9] | pest or weed control at 1200 g/ha (Scirpus juncoides [10])

Cc1ccccc1CO[C@H]1C[C@]2(C(C)C)C=C[C@@]1(C)O2 [3-749, (1S,4R,5S)-4-methyl-5-[(2-methylphenyl)methoxy]-1-isopropyl-7-oxabicyclo[2.2.1]hept-2-ene]
≥ 80%: inhibition at 1200 g/ha (Echinochloa crus-galli [4]) | inhibition at 1200 g/ha (Digitaria ciliaris [5]) | inhibition at 1200 g/ha [7] | inhibition at 1200 g/ha (Scirpus juncoides [8]) | inhibition at 1200 g/ha (Digitaria ciliaris [1]) | inhibition at 1200 g/ha (Echinochloa crus-galli [2]) | pest or weed control at 1200 g/ha [9] | pest or weed control at 1200 g/ha (Scirpus juncoides [10])

CC(C)[C@]12C=C[C@](C)(O1)[C@H](OCc1c(Cl)cccc1Cl)C2 [3-732, (1R,4S,5R)-5-[(2,6-dichlorophenyl)methoxy]-4-methyl-1-isopropyl-7-oxabicyclo[2.2.1]hept-2-ene]
≥ 80%: inhibition at 1200 g/ha (Echinochloa crus-galli [4]) | inhibition at 1200 g/ha (Digitaria ciliaris [5]) | inhibition at 1200 g/ha [7] | inhibition at 1200 g/ha (Scirpus juncoides [8]) | inhibition at 1200 g/ha (Digitaria ciliaris [1]) | inhibition at 1200 g/ha (Echinochloa crus-galli [2]) | pest or weed control at 1200 g/ha [9] | pest or weed control at 1200 g/ha (Scirpus juncoides [10])

C#CCO[C@H]1C[C@]2(C)O[C@@]1(C(C)C)C[C@H]2OCc1ccccc1F [1-1607, (1S,2R,4R,5S)-2-[(2-fluorophenyl)methoxy]-1-methyl-4-isopropyl-5-prop-2-ynoxy-7-oxabicyclo[2.2.1]heptane]
≥ 80%: inhibition at 1200 g/ha (Echinochloa crus-galli [4]) | inhibition at 1200 g/ha (Digitaria ciliaris [5]) | inhibition at 1200 g/ha [7] | inhibition at 1200 g/ha (Scirpus juncoides [8]) | inhibition at 1200 g/ha (Digitaria ciliaris [1]) | inhibition at 1200 g/ha (Echinochloa crus-galli [2]) | pest or weed control at 1200 g/ha [9] | pest or weed control at 1200 g/ha (Scirpus juncoides [10])

CC(C)[C@@]12C[C@H](OCc3ccccc3F)[C@@](C)(C[C@@H]1C)O2 [1-1222, (1R,2S,4S,5S)-2-[(2-fluorophenyl)methoxy]-1,5-dimethyl-4-isopropyl-7-oxabicyclo[2.2.1]heptane]
≥ 80%: inhibition at 1200 g/ha (Echinochloa crus-galli [2]) | inhibition at 75 g/ha (Echinochloa crus-galli [3])

CC(C)[C@]12C[C@@H](OCC3CCCCC3)[C@](C)(C[C@@H]1I)O2 [1-736, (1R,2S,4S,5R)-5-(cyclohexylmethoxy)-2-iodo-1-isopropyl-4-methyl-7-oxabicyclo[2.2.1]heptane]
≥ 80%: inhibition at 1200 g/ha (Echinochloa crus-galli [4]) | inhibition at 1200 g/ha (Digitaria ciliaris [5]) | inhibition at 75 g/ha [6] | inhibition at 1200 g/ha [7] | inhibition at 1200 g/ha (Scirpus juncoides [8]) | inhibition at 1200 g/ha (Digitaria ciliaris [1]) | inhibition at 1200 g/ha (Echinochloa crus-galli [2]) | pest or weed control at 1200 g/ha [9] | pest or weed control at 1200 g/ha (Scirpus juncoides [10]) | inhibition at 75 g/ha [11]

CC(C)C12CC(OCc3ccsc3)C(C)(CC1Br)O2 (stereo not drawn) [1-1390, 5-bromo-1-methyl-4-isopropyl-2-(thiophen-3-ylmethoxy)-7-oxabicyclo[2.2.1]heptane]
≥ 80%: inhibition at 1200 g/ha (Echinochloa crus-galli [4]) | inhibition at 1200 g/ha (Digitaria ciliaris [5]) | inhibition at 1200 g/ha [7] | inhibition at 1200 g/ha (Scirpus juncoides [8]) | inhibition at 1200 g/ha (Digitaria ciliaris [1]) | inhibition at 1200 g/ha (Echinochloa crus-galli [2]) | pest or weed control at 1200 g/ha [9] | pest or weed control at 1200 g/ha (Scirpus juncoides [10])

Source: patent publication EP4707280A1, “1,4-CINEOLE DERIVATIVE AND INTERMEDIATE THEREOF, HERBICIDE CONTAINING SAID DERIVATIVE AS ACTIVE INGREDIENT, METHOD FOR USING HERBICIDE, AND METHOD FOR PREPARING AGROCHEMICAL COMPOSITION” (HOKKO CHEMICAL INDUSTRY CO., LTD., priority 2023, dated 2024)
